Organism: Rattus norvegicus
Experiment: DrugMatrix - Regimen: Daily Repeat
Format: toxicity, organism-based, Sprague-Dawley
Design: regimen Daily Repeat, gender Male, age 6-8 weeks
Details: in vivo, po, route oral GAVAGE, vehicle 100 % WATER; for ABSOLUTE BASOPHIL / ABSOLUTE EOSINOPHIL / ABSOLUTE LYMPHOCYTE / ABSOLUTE MONOCYTE / ABSOLUTE SEGMENTED NEUTROPHIL / BASOPHIL / EOSINOPHIL / ERYTHROCYTE COUNT / HEMATOCRIT / HEMOGLOBIN / LEUKOCYTE COUNT / LYMPHOCYTE / MEAN CORPUSCULAR HEMOGLOBIN / MEAN CORPUSCULAR HEMOGLOBIN CONCENTRATION / MEAN CORPUSCULAR VOLUME / MONOCYTE / NEUTROPHIL / NUCLEATED RED BLOOD CELLS / PLATELET COUNT: tissue Blood; for ALANINE AMINOTRANSFERASE / ALBUMIN / ALKALINE PHOSPHATASE / ASPARTATE AMINOTRANSFERASE / BLOOD UREA NITROGEN / CARBON DIOXIDE / CHLORIDE / CHOLESTEROL / CREATINE PHOSPHOKINASE / CREATININE / GLUCOSE / LACTATE DEHYDROGENASE / LIPASE / PHOSPHORUS / POTASSIUM / SODIUM / TOTAL BILIRUBIN / TOTAL PROTEIN / URIC ACID: tissue Plasma
[1] = 30 mg/kg, 120 h, dose level Low, time 5 day
[2] = 3000 mg/kg, 72 h, dose level High, time 3 day
[3] = 3000 mg/kg, 120 h, dose level High, time 5 day

## CC1COc2c(N3CCN(C)CC3)c(F)cc3c(=O)c(C(=O)O)cn1c23 (centres undefined) [OFLOXACIN]
[1]
  ABSOLUTE BASOPHIL: 0 CELLS/uL
  ABSOLUTE EOSINOPHIL: 0 CELLS/uL
  ABSOLUTE LYMPHOCYTE: 11457 CELLS/uL
  ABSOLUTE MONOCYTE: 48.33 CELLS/uL
  ABSOLUTE SEGMENTED NEUTROPHIL: 1361.33 CELLS/uL
  BASOPHIL: 0%
  EOSINOPHIL: 0%
  ERYTHROCYTE COUNT: 5.63 x10E6/uL
  HEMATOCRIT: 35.6%
  HEMOGLOBIN: 14.27 G/DL
  LEUKOCYTE COUNT: 12.87 x10E3/uL
  LYMPHOCYTE: 89%
  MEAN CORPUSCULAR HEMOGLOBIN: 25.37 pg
  MEAN CORPUSCULAR HEMOGLOBIN CONCENTRATION: 40.07 G/DL
  MEAN CORPUSCULAR VOLUME: 63.23 fL
  MONOCYTE: 0.33%
  NEUTROPHIL: 10.67%
  NUCLEATED RED BLOOD CELLS: 0 /100WBC
  PLATELET COUNT: 1227 x10E3/uL
  ALANINE AMINOTRANSFERASE: 50 u/L
  ALBUMIN: 4.2 G/DL
  ALKALINE PHOSPHATASE: 350.67 u/L
  ASPARTATE AMINOTRANSFERASE: 79 u/L
  BLOOD UREA NITROGEN: 13.67 mg/dL
  CARBON DIOXIDE: 33.67 mmol/L
  CHLORIDE: 101.33 MEQ/L
  CHOLESTEROL: 68.33 mg/dL
  CREATINE PHOSPHOKINASE: 179.33 u/L
  CREATININE: 0.19 mg/dL
  GLUCOSE: 155.67 mg/dL
  LACTATE DEHYDROGENASE: 144 u/L
  LIPASE: 12.33 u/L
  PHOSPHORUS: 11.93 mg/dL
  POTASSIUM: 6.45 MEQ/L
  SODIUM: 144.3 MEQ/L
  TOTAL BILIRUBIN: 0.13 mg/dL
  TOTAL PROTEIN: 5.9 G/DL
  URIC ACID: 1.4 mg/dL
[2]
  ABSOLUTE BASOPHIL: 0 CELLS/uL
  ABSOLUTE EOSINOPHIL: 96.33 CELLS/uL
  ABSOLUTE LYMPHOCYTE: 13060.67 CELLS/uL
  ABSOLUTE MONOCYTE: 229.33 CELLS/uL
  ABSOLUTE SEGMENTED NEUTROPHIL: 680.33 CELLS/uL
  BASOPHIL: 0%
  EOSINOPHIL: 0.67%
  ERYTHROCYTE COUNT: 5.79 x10E6/uL
  HEMATOCRIT: 36.3%
  HEMOGLOBIN: 14.37 G/DL
  LEUKOCYTE COUNT: 14.07 x10E3/uL
  LYMPHOCYTE: 92.67%
  MEAN CORPUSCULAR HEMOGLOBIN: 24.83 pg
  MEAN CORPUSCULAR HEMOGLOBIN CONCENTRATION: 39.57 G/DL
  MEAN CORPUSCULAR VOLUME: 62.7 fL
  MONOCYTE: 1.67%
  NEUTROPHIL: 5%
  NUCLEATED RED BLOOD CELLS: 0 /100WBC
  PLATELET COUNT: 1277.33 x10E3/uL
  ALANINE AMINOTRANSFERASE: 62.33 u/L
  ALBUMIN: 3.93 G/DL
  ALKALINE PHOSPHATASE: 286.33 u/L
  ASPARTATE AMINOTRANSFERASE: 99.33 u/L
  BLOOD UREA NITROGEN: 13.33 mg/dL
  CARBON DIOXIDE: 22.33 mmol/L
  CHLORIDE: 105.33 MEQ/L
  CHOLESTEROL: 67 mg/dL
  CREATINE PHOSPHOKINASE: 1225.67 u/L
  CREATININE: 0.2 mg/dL
  GLUCOSE: 162.33 mg/dL
  LACTATE DEHYDROGENASE: 245 u/L
  LIPASE: 9.67 u/L
  PHOSPHORUS: 11.1 mg/dL
  POTASSIUM: 5.42 MEQ/L
  SODIUM: 145.2 MEQ/L
  TOTAL BILIRUBIN: 0.17 mg/dL
  TOTAL PROTEIN: 5.57 G/DL
  URIC ACID: 1.57 mg/dL
[3]
  ABSOLUTE BASOPHIL: 0 CELLS/uL
  ABSOLUTE EOSINOPHIL: 0 CELLS/uL
  ABSOLUTE LYMPHOCYTE: 16402.33 CELLS/uL
  ABSOLUTE MONOCYTE: 44.67 CELLS/uL
  ABSOLUTE SEGMENTED NEUTROPHIL: 986.33 CELLS/uL
  BASOPHIL: 0%
  EOSINOPHIL: 0%
  ERYTHROCYTE COUNT: 5.74 x10E6/uL
  HEMATOCRIT: 35.4%
  HEMOGLOBIN: 14.07 G/DL
  LEUKOCYTE COUNT: 17.43 x10E3/uL
  LYMPHOCYTE: 93.67%
  MEAN CORPUSCULAR HEMOGLOBIN: 24.53 pg
  MEAN CORPUSCULAR HEMOGLOBIN CONCENTRATION: 39.73 G/DL
  MEAN CORPUSCULAR VOLUME: 61.73 fL
  MONOCYTE: 0.33%
  NEUTROPHIL: 6%
  NUCLEATED RED BLOOD CELLS: 0 /100WBC
  PLATELET COUNT: 1340 x10E3/uL
  ALANINE AMINOTRANSFERASE: 60.33 u/L
  ALBUMIN: 4.17 G/DL
  ALKALINE PHOSPHATASE: 195 u/L
  ASPARTATE AMINOTRANSFERASE: 83 u/L
  BLOOD UREA NITROGEN: 14.33 mg/dL
  CARBON DIOXIDE: 27 mmol/L
  CHLORIDE: 104.33 MEQ/L
  CHOLESTEROL: 67.33 mg/dL
  CREATINE PHOSPHOKINASE: 394.67 u/L
  CREATININE: 0.22 mg/dL
  GLUCOSE: 147.67 mg/dL
  LACTATE DEHYDROGENASE: 555.67 u/L
  LIPASE: 10 u/L
  PHOSPHORUS: 11.37 mg/dL
  POTASSIUM: 5.87 MEQ/L
  SODIUM: 144.67 MEQ/L
  TOTAL BILIRUBIN: 0.13 mg/dL
  TOTAL PROTEIN: 5.97 G/DL
  URIC ACID: 1.67 mg/dL
